Assay results taken from patent US20130244999A1, “Substituted Heterocyclic Compounds” (Incyte Corporation, priority 2008, published 2013).

The molecules below were run against T1, histamine H4 receptor (Homo sapiens, UniProt Q9H3N8) (assay: Inhibition of histamine H4 receptor (Table A1; H4 membrane binding assay)). Details: not given.
T1 construct: expressed in transfected cells; host or cells: HEK293SFM cells (membrane preparation)
Protocol: Recombinant HEK293SFM cells expressing human H1, H2, H3, H4 or mouse H4 were harvested (Packard Filtermate Harvester) in ice-cold Tris-HCl, (50 mM, pH 7.5, Sigma) with protease inhibitors (Roche) and homogenized with a Polytron homogenizer. The homogenate was centrifuged for 5 minutes at 1000 g to remove nuclei and unbroken cells. The supernatant was centrifuged at 50000 g for 30 minutes, and the resulting pellet was re-suspended in ice-cold Tris-HCl (50 mM, pH 7.5). […] Nonspecific binding was determined by inclusion of 1000× unlabeled ligands. The bound radioactivity was separated by filtration through polyethyleneimine-treated GF/B filters (Perkin Elmer). The filters were washed eight times with ice-cold Tris-HCl (50 mM, pH 7.5), and radioactivity retained on the filters was measured by liquid scintillation counting. The binding data were evaluated with Prism. […]

inhibition at 1 µM [%] | Structure (SMILES)
66 | CC1Cc2ccc(-c3cccc(C(=O)N(C)C)n3)cc2CN1c1cc(N2CCN(C)CC2)nc(N)n1 (single isomer, unassigned) [Example 76, 6-{2-[2-Amino-6-(4-methylpiperazin-1-yl)pyrimidin-4-yl]-3-methyl-1,2,3,4-tetrahydroisoquinolin-7-yl}-N,N-dimethylpyridine-2-carboxamide]
66 | CC1Cc2ccc(-c3ccn(CC#N)n3)cc2CN1c1cc(N2CCN(C)CC2)nc(N)n1 (single isomer, unassigned) [Example 82B, (3-{2-[2-Amino-6-(4-methylpiperazin-1-yl)pyrimidin-4-yl]-3-methyl-1,2,3,4-tetrahydroisoquinolin-7-yl}-1H-pyrazol-1-yl)acetonitrile]
61 | CC1Cc2ccc(-c3ccn(CCC#N)n3)cc2CN1c1cc(N2CCN(C)CC2)nc(N)n1 (single isomer, unassigned) [Example 83B, 3-(3-{2-[2-Amino-6-(4-methylpiperazin-1-yl)pyrimidin-4-yl]-3-methyl-1,2,3,4-tetrahydroisoquinolin-7-yl}-1,1-pyrazol-1-yl)propanenitrile]

Same assay, conditions: histamine H4 receptor; "> a" = exceeds experiment limit

IC50 [nM] | Structure (SMILES)
50 | CC1Cc2ccc(-c3ccnc(C(=O)N4CCC(N(C)C)C4)c3)cc2CN1c1cc(N2CCN(C)CC2)nc(N)n1 (single isomer, unassigned) [Example 67B, 4-[7-(2-{[3-(dimethylamino)pyrrolidin-1-yl]carbonyl}pyridin-4-yl)-3-methyl-3,4-dihydroisoquinolin-2(1H)-yl]-6-(4-methylpiperazin-1-yl)pyrimidin-2-amine]
30 | CC1Cc2ccc(-c3ccnc(C(=O)N(C)CCN(C)C)c3)cc2CN1c1cc(N2CCN(C)CC2)nc(N)n1 (single isomer, unassigned) [Example 68A, 4-{2-[2-amino-6-(4-methylpiperazin-1-yl)pyrimidin-4-yl]-3-methyl-1,2,3,4-tetrahydroisoquinolin-7-yl}-N-[2-(dimethylamino)ethyl]-N-methylpyridine-2-carboxamide]
32 | CC1Cc2ccc(-c3ccnc(C(=O)N(C)CCN(C)C)c3)cc2CN1c1cc(N2CCN(C)CC2)nc(N)n1 (single isomer, unassigned) [Example 68B, 4-{2-[2-amino-6-(4-methylpiperazin-1-yl)pyrimidin-4-yl]-3-methyl-1,2,3,4-tetrahydroisoquinolin-7-yl}-N-[2-(dimethylamino)ethyl]-N-methylpyridine-2-carboxamide]
66 | CC1Cc2ccc(-c3ccnc(C(=O)N[C@H](C)CO)c3)cc2CN1c1cc(N2CCN(C)CC2)nc(N)n1 (single isomer, unassigned) [Example 69]
86 | CC1Cc2ccc(-c3ccnc(C(=O)N4CCN(C)CC4)c3)cc2CN1c1cc(N2CCN(C)CC2)nc(N)n1 (single isomer, unassigned) [Example 70, 4-[3-Methyl-7-{2-[(4-methylpiperazin-1-yl)carbonyl]pyridin-4-yl}-3,4-dihydroisoquinolin-2(1H)-yl]-6-(4-methylpiperazin-1-yl)pyrimidin-2-amine]
153 | CCNC(=O)c1ccc(-c2ccc3c(c2)CN(c2cc(N4CCN(C)CC4)nc(N)n2)C(C)C3)nc1 (single isomer, unassigned) [Example 71, 6-{2-[2-Amino-6-(4-methylpiperazin-1-yl)pyrimidin-4-yl]-3-methyl-1,2,3,4-tetrahydroisoquinolin-7-yl}-N-ethylnicotinamide]
269 | CC1Cc2ccc(-c3ccc(C(=O)N(C)C)cn3)cc2CN1c1cc(N2CCN(C)CC2)nc(N)n1 (single isomer, unassigned) [Example 72, 6-{2-[2-Amino-6-(4-methylpiperazin-1-yl)pyrimidin-4-yl]-3-methyl-1,2,3,4-tetrahydroisoquinolin-7-yl}-N,N-dimethylnicotinamide]
195 | CC1Cc2ccc(-c3ccc(C(=O)N4CC(O)C4)cn3)cc2CN1c1cc(N2CCN(C)CC2)nc(N)n1 (single isomer, unassigned) [Example 73, 1-[(6-{2-[2-Amino-6-(4-methylpiperazin-1-yl)pyrimidin-4-yl]-3-methyl-1,2,3,4-tetrahydroisoquinolin-7-yl}pyridin-3-yl)carbonyl]azetidin-3-ol]
148 | CC1Cc2ccc(-c3cncc(C(=O)N(C)C)c3)cc2CN1c1cc(N2CCN(C)CC2)nc(N)n1 (single isomer, unassigned) [Example 74, 5-{2-[2-Amino-6-(4-methylpiperazin-1-yl)pyrimidin-4-yl]-3-methyl-1,2,3,4-tetrahydroisoquinolin-7-yl}-N,N-dimethylnicotinamide]
100 | CC1Cc2ccc(-c3cncc(C(=O)N4CC(O)C4)c3)cc2CN1c1cc(N2CCN(C)CC2)nc(N)n1 (single isomer, unassigned) [Example 75, 1-[(5-{2-[2-Amino-6-(4-methylpiperazin-1-yl)pyrimidin-4-yl]-3-methyl-1,2,3,4-tetrahydroisoquinolin-7-yl}pyridin-3-yl)carbonyl]azetidin-3-ol]
149 | CCNC(=O)c1ncc(-c2ccc3c(c2)CN(c2cc(N4CCN(C)CC4)nc(N)n2)C(C)C3)cn1 (single isomer, unassigned) [Example 77, 5-{2-[2-Amino-6-(4-methylpiperazin-1-yl)pyrimidin-4-yl]-3-methyl-1,2,3,4-tetrahydroisoquinolin-7-yl}-N-ethylpyrimidine-2-carboxamide]
135 | CC1Cc2ccc(-c3cnc(C(=O)N4CC(O)C4)nc3)cc2CN1c1cc(N2CCN(C)CC2)nc(N)n1 (single isomer, unassigned) [Example 78, 1-[(5-{2-[2-Amino-6-(4-methylpiperazin-1-yl)pyrimidin-4-yl]-3-methyl-1,2,3,4-tetrahydroisoquinolin-7-yl}pyrimidin-2-yl)carbonyl]azetidin-3-ol]
75 | CNC(=O)c1ccc(-c2ccc3c(c2)CN(c2cc(N4CCN(C)CC4)nc(N)n2)C(CO)C3)cn1 (single isomer, unassigned) [Example 81A, 5-[2-[2-amino-6-(4-methylpiperazin-1-yl)pyrimidin-4-yl]-3-(hydroxymethyl)-1,2,3,4-tetrahydroisoquinolin-7-yl]-N-methylpyridine-2-carboxamide]
34 | CNC(=O)c1ccc(-c2ccc3c(c2)CN(c2cc(N4CCN(C)CC4)nc(N)n2)C(CO)C3)cn1 (single isomer, unassigned) [Example 81B, 5-[2-[2-amino-6-(4-methylpiperazin-1-yl)pyrimidin-4-yl]-3-(hydroxymethyl)-1,2,3,4-tetrahydroisoquinolin-7-yl]-N-methylpyridine-2-carboxamide]
22 | CC1Cc2ccc(-c3ccn(CC#N)n3)cc2CN1c1cc(N2CCN(C)CC2)nc(N)n1 (single isomer, unassigned) [Example 82A, (3-{2-[2-Amino-6-(4-methylpiperazin-1-yl)pyrimidin-4-yl]-3-methyl-1,2,3,4-tetrahydroisoquinolin-7-yl}-1H-pyrazol-1-yl)acetonitrile]
33 | CC1Cc2ccc(-c3ccn(CCC#N)n3)cc2CN1c1cc(N2CCN(C)CC2)nc(N)n1 (single isomer, unassigned) [Example 83A, 3-(3-{2-[2-Amino-6-(4-methylpiperazin-1-yl)pyrimidin-4-yl]-3-methyl-1,2,3,4-tetrahydroisoquinolin-7-yl}-1H-pyrazol-1-yl)propanenitrile]
